Key:
[1] = system: SK-MEL2 human tumor cells that were transfected with a plasmid containing the murine VEGF gene; assay: Matrigel Angiogenesis Model (hemoglobin content of Matrigel plugs); format: in vivo, Mice; conditions: 30, 100 and 300 mg/kg po sid; 12 days post-implantation; vs. vehicle control animals
Procedure: Preparation of Matrigel Plugs and in vivo Phase: Matrigel® (Collaborative Biomedical Products, Bedford, MA) is a basement membrane extract from a murine tumor composed primarily of laminin, collagen IV and heparan sulfate proteoglycan. It is provided as a sterile liquid at 4° C, but rapidly forms a solid gel at 37° C.
Liquid Matrigel at 4° C was mixed with SK-MEL2 human tumor cells that were transfected with a plasmid containing the murine VEGF gene with a selectable marker. Tumor cells were grown in vitro under selection and cells were mixed with cold liquid Matrigel at a ratio of 2 X 10^6 per 0.5 ml. […]
Optical densities were determined spectrophotometrically at 600 nm in a 96-well plate reader, SpectraMax 250 Microplate Spectrophotometer System (Molecular Devices, Sunnyvale, CA). Background Lysis Buffer readings were subtracted from all wells.
Total sample hemoglobin content was calculated according to the following equation: Total Hemoglobin = (Sample Lysate Volume) x (Hemoglobin Concentration) [formula]
The average Total Hemoglobin of Matrigel samples without cells was subtracted from each Total Hemoglobin Matrigel sample with cells. Percent inhibition was calculated according to the following equation: % Inhibition =((Average Total Hemoglobin Drug-Treated Tumor Lysates) X 100)/((Average Total Hemoglobin Non-Treated Tumor Lysates)) [formula]

[2] = biological target: T1, cytosolic kinase domain of KDR kinase (Homo sapiens, UniProt P35968); assay: KDR Assay (ELISA, phosphorylation of poly(Glu4;Tyr1)); format: biochemical; conditions: 3.3 µM ATP, 60 minutes at room temperature, 30 ng KDR kinase domain
T1 construct: The cytosolic kinase domain of KDR kinase was expressed as a 6His fusion protein in Sf9 insect cells; 6His; made in house; host or cells: Sf9 insect cells
Procedure: The cytosolic kinase domain of KDR kinase was expressed as a 6His fusion protein in Sf9 insect cells. The KDR kinase domain fusion protein was purified over a Ni^++ chelating column. Ninety-six well ELISA plates were coated with 5 µg poly(Glu4;Tyr1) (Sigma Chemical Co., St Louis, MO) in 100 µl HEPES buffer (20 mM HEPES, pH 7.5, 150 mM NaCl, 0.02% Thimerosal) at 4° overnight. Before use, the plate was washed with HEPES, NaCl buffer and the plates were blocked with 1% BSA, 0.1% Tween 20 in HEPES, NaCl buffer.
Test compounds were serially diluted in 100% DMSO from 4 mM to 0.12 µM in half-log dilutions. These dilutions were further diluted twenty fold in H2O to obtain compound solutions in 5% DMSO. Following loading of the assay plate with 85 µl of assay buffer (20 mM HEPES, pH 7.5, 100 mM KCl, 10 mM MgCl2, 3 mM MnCl2, 0.05% glycerol, 0.005% Triton X-100, 1 mM -mercaptoethanol, with or without 3.3 µM ATP), 5 µl of the diluted compounds were added to a final assay volume of 100 µl. Final concentrations were between 10 µM, and 0.3 nM in 0.25% DMSO. The assay was initiated by the addition of 10µl (30 ng) of KDR kinase domain.
The assay was incubated with test compound or vehicle alone with gentle agitation at room temperature for 60 minutes. The wells were washed and phosphotyrosines (PY) were probed with an anti-phosphotyrosine (PY), mAb clone 4G10 (Upstate Biotechnology, Lake Placid, NY). PY/anti-PY complexes were detected with an anti-mouse IgG/HRP conjugate (Amersham International plc, Buckinghamshire, England). Phosphotyrosine was quantitated by incubating with 100 µl 3, 3', 5, 5' tetramethylbenzidine solution (Kirkegaard and Perry, TMB Microwell 1 Component peroxidase substrate). Color development was arrested by the addition of 100 µl 1% HCl-based stop solution (Kirkegaard and Perry, TMB I Component Stop Solution).
Optical densities were determined spectrophotometrically at 450 nm in a 96-well plate reader, SpectraMax 250 (Molecular Devices). Background (no ATP in assay) OD values were subtracted from all ODs and the percent inhibition was calculated according to the equation: % Inhibition =((OD(vehicle control) - OD(with compound)) X 100)/(OD(vehicle control) - OD(no ATP added)) [formula]
The IC50 values were determined with a least squares analysis program using compound concentration versus percent inhibition. Compounds that have IC50 < 100 nM in this assay include those of Examples 1, 2, 4, 5, 6, 7, 10, 11, 12, 13, 14, 15, 16 and 23. Compounds that have IC50 values between 100 nM and 1,000 nM include those of examples 8, 9 and 22. Those that have measured IC50 values > 1,000 nM include those of examples 3, 17, 18 and 21.

T1 sequence (P35968 834-1162 limits assumed): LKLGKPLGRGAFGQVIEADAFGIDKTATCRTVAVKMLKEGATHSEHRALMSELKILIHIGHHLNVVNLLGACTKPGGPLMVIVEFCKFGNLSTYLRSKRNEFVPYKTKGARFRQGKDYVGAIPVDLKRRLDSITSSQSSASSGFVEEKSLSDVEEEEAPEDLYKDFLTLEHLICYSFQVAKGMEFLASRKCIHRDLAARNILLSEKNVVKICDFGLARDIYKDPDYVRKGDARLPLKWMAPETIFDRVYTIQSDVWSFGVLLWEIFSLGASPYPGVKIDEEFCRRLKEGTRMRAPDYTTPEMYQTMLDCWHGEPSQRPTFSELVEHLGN

In the case of CNC(=O)c1cc(Cc2nnc(Nc3ccc(Cl)cc3)c3ccccc23)ccn1 [Example 1, 4-[4-(4-Chlorophenylamino)phthalazin-1-ylmethyl]pyridin-2-yl carboxylic acid methylamide], the “inhibition of total hemoglobin content of the Matrigel samples” value [1] is reported as over 50% and the IC50 [2] is reported as under 100 nM.

Reference: patent EP1208096B1, “SUBSTITUTED PYRIDAZINES AND FUSED PYRIDAZINES WITH ANGIOGENESIS INHIBITING ACTIVITY” (Bayer Corporation, priority 1999, dated 2001)
